MIC data for 5 compounds are collected here from patent US4785090A, “Cephalosporin derivatives” (Meiji Seika Kaisha, Ltd., priority 1984, dated 1988).

Assay type in all cases: cell-based
The test system of experiment [1] is Klebsiella pneumoniae GN 69. Kind of experiment: Minimum Growth Inhibitory Concentration (MIC), Klebsiella pneumoniae GN 69. Conditions: GN69; Table 1, bacterium 4: Klebsiella pneumoniae GN 69. From the text: (§1) Minimum Growth Inhibitory Concentration (MIC) mcg/ml
4. Klebsiella pneumoniae GN 69

Experiment [2] deals with Pseudomonas aeruginosa MB 3833. Kind of experiment: Minimum Growth Inhibitory Concentration (MIC), Pseudomonas aeruginosa MB 3833. The following applies: MB3833; Table 1, bacterium 8: Pseudomonas aeruginosa MB 3833.
Text: as §1
8. Pseudomonas aeruginosa MB 3833

The test system of experiment [3] is Serratia marcescens N 01. Kind of experiment: Minimum Growth Inhibitory Concentration (MIC), Serratia marcescens N 01. Conditions: N01; Table 1, bacterium 7: Serratia marcescens N 01.
Text: as §1
7. Serratia marcescens N 01

Experiment [4] relates to Staphylococcus aureus 209PJC1. Kind of experiment: Minimum Growth Inhibitory Concentration (MIC), Staphylococcus aureus 209PJC1. Conditions: read-out: Minimum Growth Inhibitory Concentration (MIC).
Text: as §1
1. Staphylococcus aureus 209PJC1
as §1
2. Staphylococcus aureus 209 PJC1

The test system of experiment [5] is Escherichia coli RGN 823. Kind of experiment: Minimum Growth Inhibitory Concentration (MIC), Escherichia coli RGN 823. Conditions: RGN823; Table 1, bacterium 3: Escherichia coli RGN 823.
Text: as §1
3. Escherichia coli RGN 823

In experiment [6] the test system is Proteus vulgaris OX19. Kind of experiment: Minimum Growth Inhibitory Concentration (MIC), Proteus vulgaris OX19. Conditions: Table 1, bacterium 5: Proteus vulgaris OX19.
Text: as §1
5. Proteus vulgaris OX19

Experiment [7] concerns Bacillus subtilis. Nature of the experiment: Minimum Growth Inhibitory Concentration (MIC), Bacillus subtilis. The following applies: Table 1, bacterium 2: Bacillus subtilis.
Text: as §1

In experiment [8] the test system is Enterobacter cloacae G0006. Kind of experiment: Minimum Growth Inhibitory Concentration (MIC), Enterobacter cloacae G0006. The following applies: Table 1, bacterium 6: Enterobacter cloacae G0006.
Text: as §1
6. Enterobacter cloacae G0006

Experiment [9] relates to Proteus vulgaris GN 76. Kind of experiment: Minimum Growth Inhibitory Concentration (MIC), Proteus vulgaris GN 76. The following applies: GN76; Table 2, bacterium 8: Proteus vulgaris GN 76; read-out: Minimum Growth Inhibitory Concentration (MIC).
Text: as §1
10. Proteus vulgaris GN 76
as §1
8. Proteus vulgaris GN 76

Experiment [10] concerns Salmonella typhimurium LT2. Kind of experiment: Minimum Growth Inhibitory Concentration (MIC), Salmonella typhimurium LT2. The following applies: Salmonella enterica; Table 2, bacterium 7: Salmonella typhimurium LT2; read-out: Minimum Growth Inhibitory Concentration (MIC).
Text: as §1
7. Salmonella typhimurium LT2

Experiment [11] concerns Eshcerichia coli GN 206. Nature of the experiment: Minimum Growth Inhibitory Concentration (MIC), Escherichia coli GN 206. The following applies: GN206, Table 2, bacterium 4: Eshcerichia coli GN 206, read-out: Minimum Growth Inhibitory Concentration (MIC).
Text: as §1
4. Eshcerichia coli GN 206

For experiment [12], the system named is Staphylococcus aureus Smith. Nature of the experiment: Minimum Growth Inhibitory Concentration (MIC), Staphylococcus aureus Smith. The following applies: Table 2, bacterium 1: Staphylococcus aureus Smith; read-out: Minimum Growth Inhibitory Concentration (MIC).
Text: as §1
1. Staphylococcus aureus Smith

Experiment [13] relates to Serratia marcescens No. 1. Nature of the experiment: Minimum Growth Inhibitory Concentration (MIC), Serratia marcescens No. 1. Conditions: Table 2, bacterium 11: Serratia marcescens No. 1.
Text: as §1
11. Serratia marcescens No. 1

In experiment [14] the test system is Escherichia coli NIHJ JC2. Nature of the experiment: Minimum Growth Inhibitory Concentration (MIC), Escherichia coli NIHJ JC2. Conditions: NIHJJC2; Table 2, bacterium 3: Escherichia coli NIHJ JC2; read-out: Minimum Growth Inhibitory Concentration (MIC).
Text: as §1
3. Escherichia coli NIHJ JC2

For experiment [15], the system named is Proteus rettgeri GN624. Kind of experiment: Minimum Growth Inhibitory Concentration (MIC), Proteus rettgeri GN624. Conditions: Providencia rettgeri; Table 2, bacterium 9: Proteus rettgeri GN624; read-out: Minimum Growth Inhibitory Concentration (MIC).
Text: as §1
9. Proteus rettgeri GN624

Experiment [16] has as its system Proteus mirabilis GN 79. Nature of the experiment: Minimum Growth Inhibitory Concentration (MIC), Proteus mirabilis GN 79. The following applies: GN79; Table 2, bacterium 6: Proteus mirabilis GN 79; read-out: Minimum Growth Inhibitory Concentration (MIC).
Text: as §1
6. Proteus mirabilis GN 79

Experiment [17] concerns Klebsiella pneumoniae PCI 602. Nature of the experiment: Minimum Growth Inhibitory Concentration (MIC), Klebsiella pneumoniae PCI 602. Conditions: PCI602; Table 2, bacterium 5: Klebsiella pneumoniae PCI 602; read-out: Minimum Growth Inhibitory Concentration (MIC).
Text: as §1
5. Klebsiella pneumoniae PCI 602

[18] abbreviates: Table 1, bacterium 1: Staphylococcus aureus 209PJC1.

Values after ≈ are worked out from the molar mass of the structure shown. Where two headings read alike, the source gives them in different places. Bounds are passed on as bounds.

On to `CO/N=C(\C(=O)N[C@@H]1C(=O)N2C(C(=O)[O-])=C(CSc3cc[n+](C)c4c3CCC4)CS[C@H]12)c1csc(N)n1` [Example 2, (6R,7R)-7-[(Z)-2-(2-Aminothiazol-4-yl)-2-methoxyiminoacetamido]-3-[(2,3-cyclopenteno-1-methylpyridinium-4-yl)thiomethyl]-ceph-3-em-4-carboxylate], for which the MIC was not above 0.025 µg/mL in [1]; 6.25 µg/mL (≈ 11.1 µM) in experiment [2]; 0.05 µg/mL (≈ 0.0892 µM) in [3]; 0.05 µg/mL (≈ 0.0892 µM) in [4] (setting [18]); not above 0.025 µg/mL in experiment [5]; 0.1 µg/mL (≈ 0.178 µM) in [6]. The values for the MIC in experiment [7] and in experiment [8] were 1.56 µg/mL (≈ 2.78 µM) and 0.78 µg/mL (≈ 1.39 µM), respectively.

For `Cc1cc(SCC2=C(C(=O)[O-])N3C(=O)[C@@H](NC(=O)/C(=N\OC[C@@H](N)C(=O)O)c4csc(N)n4)[C@H]3SC2)c2c([n+]1C)CCCC2` [Example 12, (6R,7R)-7-[(Z)-2-(2-Aminothiazol-4-yl)-2-(2D-2-amino-2-carboxyethoxyimino)acetamido]-3-[(6-methyl-2,3-cyclohexeno-1-methylpyridinium-4-yl)thiomethyl]-ceph-3-em-4-carboxylate], the MIC in [1] was determined as 0.78 µg/mL (≈ 1.18 µM); in experiment [2] it was 50 µg/mL (≈ 75.6 µM); in experiment [3], 1.56 µg/mL (≈ 2.36 µM); in experiment [4] (setting [18]) it was 3.13 µg/mL (≈ 4.73 µM); in experiment [5], 1.56 µg/mL (≈ 2.36 µM); in experiment [6], 1.56 µg/mL (≈ 2.36 µM). The MIC in experiment [7] was 12.5 µg/mL (≈ 18.9 µM); in experiment [8], 6.25 µg/mL (≈ 9.44 µM).

On to `CCO/N=C(\C(=O)N[C@@H]1C(=O)N2C(C(=O)[O-])=C(CSc3cc[n+](CC(F)(F)F)cc3)CS[C@H]12)c1csc(N)n1` [Example 81, (6R,7R)-7-[(Z)-2-(2-Aminothiazol-4-yl)-2-ethoxyiminoacetamido]-3-[1-(2,2,2-trifluoroethylpyridinium-4-yl)thiomethyl]-ceph-3-em-4-carboxylate], for which the MIC in experiment [9] was 0.39 µg/mL (≈ 0.647 µM); in experiment [10], 0.05 µg/mL (≈ 0.083 µM); in experiment [11], not above 0.025 µg/mL; in experiment [12], 0.39 µg/mL (≈ 0.647 µM); in [13], 0.05 µg/mL (≈ 0.083 µM); in experiment [14], 0.05 µg/mL (≈ 0.083 µM). The MIC in experiment [4] (Table 2, bacterium 2: Staphylococcus aureus 209 PJC1) is 0.39 µg/mL (≈ 0.647 µM); in [15], 0.1 µg/mL (≈ 0.166 µM); in experiment [16] it was 0.78 µg/mL (≈ 1.29 µM); in [17], 0.1 µg/mL (≈ 0.166 µM).

Take `C[n+]1c(SCC2=C(C(=O)[O-])N3C(=O)[C@@H](NC(=O)/C(=N\OC(C)(C)C(=O)O)c4csc(N)n4)[C@H]3SC2)ccc2c1CCCC2` [Example 18, (6R,7R)-7-[(Z)-2-(2-Aminothiazol-4-yl)-2-(1-methyl-1-carboxyethoxyimino)acetamido]-3-[(5,6-cyclohexeno-1-methylpyridinium-2-yl)thiomethyl]-ceph-3-em-4-carboxylate]: the MIC in experiment [1] is 0.39 µg/mL (≈ 0.603 µM); in [2], 6.25 µg/mL (≈ 9.66 µM); in experiment [3] it was 0.05 µg/mL (≈ 0.0773 µM); in [4] (setting [18]), 1.56 µg/mL (≈ 2.41 µM); in [5] it was 0.2 µg/mL (≈ 0.309 µM); in experiment [6], 0.1 µg/mL (≈ 0.155 µM). In addition, the MIC in [7] amounted to 12.5 µg/mL (≈ 19.3 µM); in experiment [8] it was 6.25 µg/mL (≈ 9.66 µM).

On to `CO/N=C(\C(=O)N[C@@H]1C(=O)N2C(C(=O)[O-])=C(CSc3cc(C)[n+](C)c4c3CCC4)CS[C@H]12)c1csc(N)n1` [Example 4, (6R,7R)-7-[(Z)-2-(2-Aminothiazol-4-yl)-2-methoxyiminoacetamido]-3-[(6-methyl-2,3-cyclopenteno-1-methylpyridinium-4-yl)thiomethyl]-ceph-3-em-4-carboxylate], for which the MIC in experiment [1] amounted to 0.1 µg/mL (≈ 0.174 µM); in [2], 6.25 µg/mL (≈ 10.9 µM); in [3], 0.1 µg/mL (≈ 0.174 µM); in experiment [4] (setting [18]) it was 0.1 µg/mL (≈ 0.174 µM); in experiment [5], 0.1 µg/mL (≈ 0.174 µM); in [6], 0.2 µg/mL (≈ 0.348 µM). In addition, the MIC in [7] is 0.2 µg/mL (≈ 0.348 µM); in experiment [8], 0.78 µg/mL (≈ 1.36 µM).
